Results reported in publication PMC8537386, “The Specificity and Broad Multitarget Properties of Ligands for the Free Fatty Acid Receptors FFA3/GPR41 and FFA2/GPR43 and the Related Hydroxycarboxylic Acid Receptor HCA2/GPR109A” (Pharmaceuticals, 2021).
Like-named read-outs stand apart in the source and are kept apart here.

Tests used:
[1] = molecular target: T1, FFA3/GPR41 (Homo sapiens, UniProt O14843); experiment: forskolin-stimulated cAMP accumulation assay, Flp-In-293 cells stably expressing FFA3/GPR41; type: cell-based; conditions: for inhibition at 50 µM / Emax: Flp-In-293; for inhibition at 50 µM: 50 µM compound, NA = not active up to 50 µM; for Emax / EC50: mean ± SD; for Emax: read-out: FFA3/GPR41 Emax, maximal inhibition of forskolin-stimulated cAMP (converted); for EC50: inhibition of forskolin-stimulated cAMP, absence of propionate, read-out: FFA3/GPR41 EC50; for activity towards FFA3/GPR41 (in words): cAMP assay
T1 construct: host or cells: Flp-In-293
T1 sequence (O14843 1-346): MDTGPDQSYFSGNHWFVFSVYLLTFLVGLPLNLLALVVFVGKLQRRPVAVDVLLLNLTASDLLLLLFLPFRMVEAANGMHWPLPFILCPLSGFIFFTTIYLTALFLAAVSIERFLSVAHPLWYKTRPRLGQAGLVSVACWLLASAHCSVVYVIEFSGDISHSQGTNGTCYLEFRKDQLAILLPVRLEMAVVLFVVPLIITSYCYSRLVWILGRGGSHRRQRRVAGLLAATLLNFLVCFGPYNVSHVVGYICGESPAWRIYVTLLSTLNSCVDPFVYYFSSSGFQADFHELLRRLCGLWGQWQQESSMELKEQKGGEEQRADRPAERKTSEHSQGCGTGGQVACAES
Procedure: (§1) All of our synthesized compounds were evaluated in forskolin-stimulated cAMP accumulation assay using Flp-In-293 cells stably expressing human FFA2/GPR43, FFA3/GPR41 or HCA2/GPR109A receptors (Table 1, Table 2 and Table 3; Figure 2).
(§2) Flp-In-293 cells (Invitrogen) were used for the generation of stable FFA3/GPR41 and FFA2/GRP43 cell lines using Flp-In System (Invitrogen). Flp-In-293 cells were cultured in Dulbecco’s modified Eagle medium (DMEM) supplemented with 10% fetal bovine serum (FBS), penicillin (100 U/mL), streptomycin (100 µg/mL), and zeocin (100 µg/mL). The cells were co-transfected with pOG44 (Invitrogen) and pcDNA5/FRT-FFA3 or pcDNA5/FRT-FFA2 using TurboFect (Thermo Fisher Scientific), and stable cell lines were generated according to the manufacturer’s protocol (Invitrogen). After transfection, the cells were cultured under selection pressure due to the presence of hygromycin B (100 µg/mL) in DMEM supplemented with 10% FBS, penicillin, and streptomycin.
(§3) For cAMP assay, the cells were distributed into a 384-well white microplate at a density of 12,000 cells per well and stimulated with the indicated compounds in the presence of 3 μM forskolin for 30 min. […] The cells and the compounds were diluted in 1X phosphate-buffered saline (PBS) supplemented with 0.5 mM of 3-isobutyl-1-methylxanthine. The intracellular cAMP levels were measured using a Lance cAMP kit according to the manufacturer’s instructions. The plates were read on a PerkinElmer Victor 3V multilabel plate reader. The cAMP was quantitated in each sample by comparison to a calibration curve of known cAMP quantities provided in the kit.

[2] = molecular target: T2, FFA2/GPR43 (Homo sapiens, UniProt O15552); experiment: forskolin-stimulated cAMP accumulation assay, Flp-In-293 cells stably expressing FFA2/GPR43; type: cell-based; conditions: for inhibition at 50 µM / Emax: Flp-In-293; for inhibition at 50 µM: 50 µM compound, NA = not active up to 50 µM; for activity towards FFA2/GPR43 (in words): cAMP assay; for Emax / EC50: mean ± SD; for Emax: read-out: FFA2/GPR43 Emax, maximal inhibition of forskolin-stimulated cAMP (converted); for EC50: inhibition of forskolin-stimulated cAMP
T2 construct: host or cells: Flp-In-293
T2 sequence (O15552 1-330): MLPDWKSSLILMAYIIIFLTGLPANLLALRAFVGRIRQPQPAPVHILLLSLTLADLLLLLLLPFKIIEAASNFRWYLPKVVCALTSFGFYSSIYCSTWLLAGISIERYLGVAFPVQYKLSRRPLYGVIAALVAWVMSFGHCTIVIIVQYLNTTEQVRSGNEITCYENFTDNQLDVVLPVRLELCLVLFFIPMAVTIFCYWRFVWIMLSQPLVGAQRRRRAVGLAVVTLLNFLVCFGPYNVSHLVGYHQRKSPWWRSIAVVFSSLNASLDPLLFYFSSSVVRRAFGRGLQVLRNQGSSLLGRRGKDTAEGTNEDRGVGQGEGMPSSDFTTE
Procedure: as §1, §2, §3

[3] = molecular target: T3, HCA2/GPR109A (Homo sapiens, UniProt Q8TDS4); experiment: forskolin-stimulated cAMP accumulation assay, Flp-In-293 cells stably expressing HCA2/GPR109A; type: cell-based; conditions: for activity towards HCA2/GPR109A (in words): cAMP assay; for inhibition at 50 µM: 50 µM compound, NA = not active up to 50 µM
T3 construct: expressed in transfected cells; host or cells: Flp-In-293
Procedure: as §1
Flp-In-293 cells stably expressing human HCA2/GPR109A receptor (laboratory collection) were grown in DMEM medium supplemented with 10% FBS, penicillin, streptomycin, and hygromycin B (100 µg/mL). All cells were cultured at 37 °C in a humidified incubator containing 5% CO2.
as §3

[4] = cyclic voltammetry, electrooxidation potential; type: physicochemical; conditions: vs. Ag/Ag+; acetonitrile, glassy carbon electrode
Procedure: Cyclic voltammetry experiments were carried out using a PARSTAT 2273 electrochemical system. A stationary glassy carbon disk electrode (d = 0.8 mm) served as the working electrode, while the counter electrode was a Pt wire. The oxidation potentials were measured relative to an Ag/Ag^+ reference electrode. Acetonitrile was dried over P2O5 and distilled; the distillate was stored over CaH2 and redistilled immediately prior to use. Recrystallized tetrabutylammonium tetrafluoroborate (TBATFB) was used as a supporting electrolyte at 0.1 M concentration.

[5] = HCA2, mean ± SD, read-out: HCA2/GPR109A Emax, maximal inhibition of forskolin-stimulated cAMP (converted)
[6] = inhibition of forskolin-stimulated cAMP, mean ± SD, read-out: HCA2/GPR109A EC50

T3 sequence (Q8TDS4 whole entry): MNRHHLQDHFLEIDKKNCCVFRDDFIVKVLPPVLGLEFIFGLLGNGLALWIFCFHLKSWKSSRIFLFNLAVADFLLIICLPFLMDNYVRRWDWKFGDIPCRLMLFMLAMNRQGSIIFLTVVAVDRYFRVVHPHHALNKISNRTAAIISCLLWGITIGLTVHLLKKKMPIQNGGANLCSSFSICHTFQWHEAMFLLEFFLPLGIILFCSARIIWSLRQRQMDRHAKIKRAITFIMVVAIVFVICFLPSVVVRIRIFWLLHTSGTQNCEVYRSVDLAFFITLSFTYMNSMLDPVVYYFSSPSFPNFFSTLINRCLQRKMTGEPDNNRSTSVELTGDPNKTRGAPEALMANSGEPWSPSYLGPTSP

Compound | inhibition at 50 µM [1] | Emax [1] | EC50 [1] | inhibition at 50 µM [2] | Emax [3, 5] | EC50 [3, 6] | also measured
CC1=C(C(=O)Nc2ccc(Cl)cc2)C(c2cccs2)C2=C(CCCC2=O)N1 (stereo not drawn) [1-5, N-(4-Chlorophenyl)-2-methyl-5-oxo-4-(thiophen-2-yl)-1,4,5,6,7,8-hexahydroquinoline-3-carboxamide] | 45 ± 9% | – | – | – | – | – | –
CC1=C(C(=O)Nc2ccc(Cl)cc2Cl)C(c2cccs2)C2=C(CCCC2=O)N1 (stereo not drawn) [1-6, N-(2,4-Dichlorophenyl)-2-methyl-5-oxo-4-(thiophen-2-yl)-1,4,5,6,7,8-hexahydroquinoline-3-carboxamide] | – | 82% | 1400 ± 170 nM | – | – | – | –
CC1=C(C(=O)Nc2ccccn2)C(c2cccs2)C2=C(CCCC2=O)N1 (stereo not drawn) [1-7, 2-Methyl-5-oxo-N-(pyridin-2-yl)-4-(thiophen-2-yl)-1,4,5,6,7,8-hexahydroquinoline-3-carboxamide] | – | – | – | 49 ± 8% | – | – | activity towards FFA3/GPR41 (in words) [1]: lost; activity towards FFA2/GPR43 (in words) [2]: showed activity
CC1=C(C(=O)N2CCOCC2)C(c2cccs2)C2=C(CCCC2=O)N1 (stereo not drawn) [1-8, 2-Methyl-3-(morpholine-4-carbonyl)-4-(thiophen-2-yl)-4,6,7,8-tetrahydro-1H-quinolin-5-one] | 28 ± 2% | – | – | – | – | – | activity towards FFA2/GPR43 (in words) [2]: lacked activity; activity towards HCA2/GPR109A (in words) [3]: lacked activity
CCOC(=O)COC(=O)C1=C(C)NC2=C(C(=O)CCC2)C1c1cccs1 (stereo not drawn) [1-9] | – | 91% | 1900 ± 400 nM | 40 ± 2% | – | – | El.ox. pot. (first, lower potential) [4]: 1.18 V
CCOC(=O)C(OC(=O)C1=C(C)NC2=C(C(=O)CCC2)C1c1cccs1)c1ccccc1 (stereo not drawn) [1-10, (2-Ethoxy-2-oxo-1-phenylethyl)2-methyl-5-oxo-4-(2-thienyl)-4,6,7,8-tetrahydro-1H-quinoline-3-carboxylate] | 49 ± 15% | – | – | 31 ± 4% | – | – | El.ox. pot. (first, lower potential) [4]: 1.18 V; inhibition at 50 µM ([3]; HCA2): 60 ± 5%
CCCNCC1=C(C(=O)OCC)C(c2ccc(-c3ccccc3)cc2)C2=C(CC(C)(C)CC2=O)N1 (stereo not drawn) [1-11] | 51 ± 6% | – | – | 55 ± 6% | – | – | inhibition at 50 µM ([3]; HCA2): 52 ± 5%
CCN1CC2=C(C1=O)C(c1ccc(-c3ccccc3)cc1)C1=C(CC(C)(C)CC1=O)N2 (stereo not drawn) [1-12] | 16 ± 8% | – | – | 21 ± 4% | – | – | activity towards FFA3/GPR41 (in words) [1]: low activity; activity towards FFA2/GPR43 (in words) [2]: low activity; inhibition at 50 µM ([3]; HCA2): 16 ± 4%; activity towards HCA2/GPR109A (in words) [3]: low activity
CC(=O)OCCN1C2=C(C(=O)CC(C)(C)C2)C(c2ccccc2)C2=C1CC(C)(C)CC2=O [1-13] | 30 ± 9% | – | – | 32 ± 7% | – | – | inhibition at 50 µM ([3]; HCA2): 26 ± 8%
CCOC(=O)C1=C(C(=O)O)NC2=C(C(=O)CC(C)(C)C2)C1c1ccc(-c2ccccc2)cc1 (stereo not drawn) [1-14] | – | – | – | – | – | – | activity towards FFA3/GPR41 (in words) [1]: completely lacked activity; activity towards FFA2/GPR43 (in words) [2]: completely lacked activity; activity towards HCA2/GPR109A (in words) [3]: completely lacked activity
CCc1cc(=O)oc2[nH]c(=S)[nH]c(=O)c12 [2-2] | – | – | 370 ± 80 nM | – | – | – | Emax [2]: 91%; EC50 [2]: 920 ± 40 nM; EC50 [3]: 490 ± 60 nM; Emax ([3]; HCA2, read-out: HCA2/GPR109A Emax, maximal inhibition of forskolin-stimulated cAMP): 99%

Further lines, with some results ahead:

inhibition at 50 µM [1] | Emax [1] | EC50 [1] | inhibition at 50 µM [2] | Emax [3, 5] | EC50 [3, 6] | Compound | also measured
– | 89% | 4800 ± 360 nM | – | 96% | 7100 ± 1310 nM | Cc1cc(=O)oc2[nH]c(=S)[nH]c(=O)c12 [2-1] | Emax [2]: 87%; EC50 [2]: 19000 ± 6800 nM
38 ± 2% | – | – | 29 ± 3% | 86% | 870 ± 110 nM | CCCc1cc(=O)oc2[nH]c(=S)[nH]c(=O)c12 [2-3, 5-Propyl-2-thioxo-2,3-dihydro-1H-pyrano[2,3-d]pyrimidine-4,7-dionee] | –
– | 95% | 190 ± 30 nM | – | 97% | 550 ± 40 nM | CCCCc1cc(=O)oc2[nH]c(=S)[nH]c(=O)c12 [2-4, 5-Butyl-2-thioxo-2,3-dihydro-1H-pyrano[2,3-d]pyrimidine-4,7-dione] | Emax [2]: 93%; EC50 [2]: 740 ± 80 nM
28 ± 4% | – | – | – | 93% | 51 ± 7 nM | CCCCc1cc(=O)oc2[nH]c(=O)[nH]c(=O)c12 [2-5] | El.ox. pot. (single value) [4]: 1.94 V
– | 89% | 340 ± 50 nM | – | 94% | 350 ± 20 nM | O=c1cc(CCCCCl)c2c(=O)[nH]c(=S)[nH]c2o1 [2-6, 5-(4-Chlorobutyl)-2-thioxo-2,3-dihydro-1H-pyrano[2,3-d]pyrimidine-4,7-dione] | Emax [2]: 83%; EC50 [2]: 2500 ± 400 nM
– | 95% | 1600 ± 500 nM | 65 ± 1% | 93% | 75000 ± 11000 nM | CCCCc1cc(=O)oc2[nH]c(SCC(=O)OCC)nc(=O)c12 [3-1, Ethyl 5-butyl-4,7-dioxo-1,7-dihydro-4H-(pyrano[2,3-d]pyrimidin-2-ylsulfanyl)acetate] | El.ox. pot. (single value) [4]: 1.97 V
– | 91% | 1700 ± 200 nM | 64 ± 2% | 89% | 43000 ± 8000 nM | CCOC(=O)CSc1nc(=O)c2c(CCCCCl)cc(=O)oc2[nH]1 [3-2] | –
– | 87% | 4600 ± 600 nM | 52 ± 10% | – | – | O=C(CSc1nc(=O)c2c(CCCCCl)cc(=O)oc2[nH]1)Nc1ccccc1C(=O)O [3-7, 2-2-[5-(4-Chlorobutyl)-4,7-dioxo-1,7-dihydro-4H-pyrano[2,3-d]pyrimidin-2-ylsulfanyl]-acetamino-benzoic acid] | inhibition at 50 µM ([3]; HCA2): 30 ± 6%
